Laboratory results from the supplement of paper PMC10307832.

Experiments:
Test in all cases: relative viability (nuclei count vs DMSO), 5 days (fraction); higher = more cells survive
[1] = compound: CN(c1ncccc1CNc1nc(Nc2ccc3c(c2)CC(=O)N3)ncc1C(F)(F)F)S(C)(=O)=O
How it was run: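 Viability is treated-well nuclei as a fraction of vehicle-well nuclei, reported as the median across plates. Before counting, lung cancer cell lines were kept overnight at 37 °C in 1536-well plates, pinned with five √10-spaced library-drug doses on vehicle-anchored plates, and left 5 days without medium change, then fixed, permeabilised and Hoechst-stained in one step, imaged at 4× and counted by MetaXpress. A plate passed only if control CV was below 25% and at least one doubling occurred.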

[2] = compound: CN(c1ncccc1CNc1nc(Nc2ccc3c(c2)CC(=O)N3)ncc1C(F)(F)F)S(C)(=O)=O + CC(=O)Nc1cccc(-n2c(=O)n(C3CC3)c(=O)c3c(Nc4ccc(I)cc4F)n(C)c(=O)c(C)c32)c1 [Trametinib] (partner 0.02 µM)
How it was run: (§1)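 Five library-drug doses in √10 steps were combined with a fixed anchor-drug dose, or a single drug was given alone, by pin tool to lung cancer cell lines in 1536-well plates the day after seeding. Nuclei were stained and counted after 5 days. Relative viability is the nuclei count in treated wells over that in vehicle wells, taken as the median of duplicate plates.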

[3] = compound: CN(c1ncccc1CNc1nc(Nc2ccc3c(c2)CC(=O)N3)ncc1C(F)(F)F)S(C)(=O)=O + Cc1cc(Nc2cc(N3CCN(C)CC3)nc(Sc3ccc(NC(=O)C4CC4)cc3)n2)n[nH]1 [Tozasertib] (partner 0.1 µM)
How it was run: as §1

[4] = compound: CN(c1ncccc1CNc1nc(Nc2ccc3c(c2)CC(=O)N3)ncc1C(F)(F)F)S(C)(=O)=O + NC(=O)Nc1cc(-c2cccc(F)c2)sc1C(=O)N[C@H]1CCCNC1 [AZD7762] (partner 0.2 µM)
How it was run: as §1

Cell Line | relative viability ([1]; 0.01 µM) | relative viability ([1]; 0.03162 µM) | relative viability ([1]; 0.1 µM) | relative viability ([1]; 0.3162 µM) | relative viability ([1]; 1 µM) | relative viability ([2]; first compound 0.01 µM) | relative viability ([2]; first compound 0.03162 µM) | relative viability ([2]; first compound 0.1 µM) | relative viability ([2]; first compound 0.3162 µM) | relative viability ([2]; first compound 1 µM) | relative viability ([3]; first compound 0.01 µM) | relative viability ([3]; first compound 0.03162 µM) | relative viability ([3]; first compound 0.1 µM) | relative viability ([3]; first compound 0.3162 µM) | relative viability ([3]; first compound 1 µM) | relative viability ([4]; first compound 0.01 µM) | relative viability ([4]; first compound 0.03162 µM) | relative viability ([4]; first compound 0.1 µM) | relative viability ([4]; first compound 0.3162 µM) | relative viability ([4]; first compound 1 µM)
HCC-15 | 1.02 | 1.06 | 0.888 | 0.908 | 0.853 | 0.344 | 0.378 | 0.35 | 0.35 | 0.336 | 0.418 | 0.555 | 0.44 | 0.32 | 0.254 | 1.31 | 1.39 | 1.04 | 1.23 | 1.21
NCI-H647 | 0.979 | 1.26 | 1.02 | 0.889 | 0.886 | 0.582 | 0.594 | 0.459 | 0.463 | 0.414 | 0.315 | 0.224 | 0.498 | 0.353 | 0.248 | 0.383 | 0.515 | 0.611 | 0.566 | 0.471
NCI-H1651 | 1.02 | 1.04 | 1 | 0.982 | 0.963 | 0.89 | 0.837 | 0.816 | 0.826 | 0.818 | 0.67 | 0.719 | 0.671 | 0.681 | 0.515 | 0.507 | 0.469 | 0.488 | 0.534 | 0.484
NCI-H1734 | 0.985 | 1.04 | 0.947 | 1.02 | 0.953 | 0.602 | 0.661 | 0.663 | 0.719 | 0.539 | 0.239 | 0.273 | 0.27 | 0.269 | 0.258 | 0.55 | 0.659 | 0.667 | 0.782 | 0.742
NCI-H3122 | 0.994 | 1.06 | 1.01 | 1.03 | 0.953 | 0.244 | 0.257 | 0.214 | 0.22 | 0.201 | 0.61 | 0.383 | 0.403 | 0.402 | 0.341 | 1.04 | 1.09 | 0.981 | 0.978 | 1.03
CAL-12T | 1.03 | 0.979 | 0.914 | 0.865 | 0.849 | 0.363 | 0.304 | 0.32 | 0.358 | 0.357 | 0.271 | 0.249 | 0.274 | 0.271 | 0.209 | 0.677 | 0.603 | 0.559 | 0.647 | 0.633
HCC-78 | 0.993 | 1.02 | 0.807 | 0.862 | 0.739 | 0.681 | 0.864 | 0.753 | 0.641 | 0.507 | 0.463 | 0.428 | 0.427 | 0.45 | 0.332 | 0.859 | 0.646 | 0.644 | 0.565 | 0.521
NCI-H2085 | 0.989 | 1.04 | 0.947 | 0.948 | 0.9 | 0.564 | 0.461 | 0.551 | 0.619 | 0.471 | 0.797 | 0.721 | 0.772 | 0.697 | 0.584 | 1 | 1.02 | 1.02 | 1.07 | 1.03
